Measured values as given in US9409905B2, “Antibacterial compounds and methods for use” (PTC THERAPEUTICS, INC., priority 2011, dated 2016).
≈ marks a conversion by molar mass, not a printed value.

Tests used:
[1] = test system: Escherichia coli (E. coli) BAS849; assay: Antibacterial activity, microbroth dilution MIC (Table 1); type: cell-based; settings: microbroth dilution, super sensitive Gram-negative E. coli BAS849, read-out: MIC, BAS849
In short: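 Values are MICs (μg/mL): the smallest drug amount at which macroscopically visible bacterial growth is absent under assay conditions, from a microdilution method in broth.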

[2] = test system: Staphylococcus aureus (S. aureus) 29213; assay: as above; type: cell-based; settings: microbroth dilution, Gram-positive S. aureus 29213, read-out: MIC, 29213
In short: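 Read-out: visual absence of growth. The lowest concentration meeting this gives the MIC, expressed in μg/mL, with microbroth dilution as the method.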

E. coli 25922 = assay: as above; type: cell-based, Escherichia coli; settings: Escherichia coli; microbroth dilution; control Gram-negative E. coli 25922 strain; read-out: MIC, 25922
In short: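 In a microbroth dilution test, the minimum inhibitory concentration was defined as the lowest compound level preventing growth seen by eye, and was given in μg/mL.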

E. coli LZ3111 = assay: Antibacterial activity, MIC, quinolone resistant strain (Table 2); type: cell-based; settings: Escherichia coli, LZ3111, read-out: MIC LZ3111
In short: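 Growth inhibition assessed by serial drug dilution in broth; endpoint was absence of macroscopically visible growth, reported as MIC, μg/mL.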

E. coli ELZ4000 = assay: Antibacterial activity, MIC, multi-drug resistant clinical isolate (Table 3); type: cell-based; settings: Escherichia coli, ELZ4000, read-out: MIC ELZ4000
In short: (§1)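 Values derive from a microbroth dilution method, taking as MIC (μg/mL) the lowest tested concentration without macroscopically visible growth.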

E. coli ELZ4251 = assay: as above; type: cell-based; settings: Escherichia coli
In short: as §1

[3] = test system: Acinetobacter baumannii (A. baumannii) BAA747; assay: Antibacterial activity, MIC (Table 4); type: cell-based; settings: A. baumannii BAA747, read-out: MIC, BAA747
In short: (§2)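 Compounds are serially diluted in microbroth, bacteria are grown under the test conditions, and growth is then inspected macroscopically. The lowest concentration without visible growth is reported as the MIC (μg/mL).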

[4] = test system: Klebsiella pneumoniae (K. pneumoniae) 35657; assay: Antibacterial activity, MIC (Table 4); type: cell-based; settings: K. pneumoniae 35657, read-out: MIC, 35657
In short: as §2

A. baumannii MXX2240 = assay: Antibacterial activity, MIC, resistant strain (Table 4); type: cell-based; settings: Acinetobacter baumannii, MXX2240; resistant A. baumannii MMX2240, multi-drug resistant clinical isolate; read-out: MIC, MMX2240
In short: as §2

K. pneumoniae MXX1232 = assay: as above; type: cell-based; settings: Klebsiella pneumoniae, MXX1232; resistant K. pneumoniae MMX1232, multi-drug resistant clinical isolate; read-out: MIC, MMX1232
In short: as §2

[5] = test system: Pseudomonas aeruginosa (P. aeruginosa) 27853; assay: Antibacterial activity, MIC (Table 5); type: cell-based; settings: P. aeruginosa 27853, read-out: MIC, 27853
In short: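 Using a microbroth dilution format, the minimum inhibitory concentration was recorded as the lowest tested concentration that stopped visible bacterial growth, expressed in μg/mL.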

[6] = test system: Haemophilus influenzae (H. influenzae) 49247; assay: Antibacterial activity, MIC (Table 6); type: cell-based
In short: (§3)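 Values are minimum inhibitory concentrations in μg/mL, read as the lowest compound concentration at which no growth is visible to the eye. Testing used a microbroth dilution format.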

[7] = test system: Moraxella catarrhalis (M. catarrhalis) 25238; assay: Antibacterial activity, MIC (Table 7); type: cell-based
In short: as §3

[8] = test system: Neisseria meningitidis (N. meningitidis) 13090; assay: Antibacterial activity, MIC (Table 8); type: cell-based
In short: as §3

SMILES | MIC [1] [µg/mL] | MIC [2] [µg/mL] | MIC (E. coli 25922) [µg/mL] | MIC (E. coli LZ3111) [µg/mL] | MIC (E. coli ELZ4000) [µg/mL] | MIC (E. coli ELZ4251) [µg/mL] | MIC [3] [µg/mL] | MIC [4] [µg/mL] | MIC (A. baumannii MXX2240) [µg/mL] | MIC (K. pneumoniae MXX1232) [µg/mL] | MIC [5] [µg/mL] | MIC [6] [µg/mL] | MIC [7] [µg/mL] | MIC [8] [µg/mL]
CCc1c(-c2ccc3c(c2)cc(CNCC2CCCN(C)C2)n3C)[nH]c(=O)c(C(=O)O)c1O.Cl.Cl (stereo not drawn) [Cpd 231, 5-ethyl-4-hydroxy-6-(1-methyl-2-(((1-methylpiperidin-3-yl)methylamino)methyl)-1H-indol-5-yl)-2-oxo-1,2-dihydropyridine-3-carboxylic acid dihydrochloride] | < 1 | 12.5 to 150 | 1 to 3.5 | 1 to 3.5 | 12.5 to 150 | 12.5 to 150 | 3.5 to 12.5 | 1 to 3.5 | 12.5 to 150 | 12.5 to 150 | 12.5 to 150 | 1 to 3.5 | 3.5 to 12.5 | 1 to 3.5
CCc1c(-c2ccc3c(c2)cc(CNC2CCC2)n3C)[nH]c(=O)c(C(=O)O)c1O.Cl [Cpd 232, 6-(2-((cyclobutylamino)methyl)-1-methyl-1H-indol-5-yl)-5-ethyl-4-hydroxy-2-oxo-1,2-dihydropyridine-3-carboxylic acid hydrochloride] | < 1 | 3.5 to 12.5 | < 1 | 1 to 3.5 | 3.5 to 12.5 | 3.5 to 12.5 | < 1 | 1 to 3.5 | 1 to 3.5 | 12.5 to 150 | 3.5 to 12.5 | < 1 | < 1 | < 1
CCc1c(-c2ccc3c(c2)cc(CNCC2CCCCN2C)n3C)[nH]c(=O)c(C(=O)O)c1O.Cl.Cl (stereo not drawn) [Cpd 233, 5-ethyl-4-hydroxy-6-(1-methyl-2-((((1-methylpiperidin-2-yl)methyl)amino)methyl)-1H-indol-5-yl)-2-oxo-1,2-dihydropyridine-3-carboxylic acid dihydrochloride] | < 1 | 12.5 to 150 | 1 to 3.5 | 1 to 3.5 | 12.5 to 150 | 12.5 to 150 | 12.5 to 150 | 1 to 3.5 | 12.5 to 150 | 12.5 to 150 | 12.5 to 150 | 3.5 to 12.5 | 3.5 to 12.5 | 1 to 3.5
CCc1c(-c2ccc3c(c2)cc(CNCC2CCN(C)CC2)n3C)[nH]c(=O)c(C(=O)O)c1O.Cl.Cl [Cpd 234, 5-ethyl-4-hydroxy-6-(1-methyl-2-((((1-methylpiperidin-4-yl)methyl)amino)methyl)-1H-indol-5-yl)-2-oxo-1,2-dihydropyridine-3-carboxylic acid dihydrochloride] | < 1 | 12.5 to 150 | 1 to 3.5 | 1 to 3.5 | 12.5 to 150 | 12.5 to 150 | 12.5 to 150 | 1 to 3.5 | 12.5 to 150 | 12.5 to 150 | 12.5 to 150 | 1 to 3.5 | 3.5 to 12.5 | 1 to 3.5
CCc1c(-c2ccc3c(c2)cc(CNCC2CCC2)n3C)[nH]c(=O)c(C(=O)O)c1O.Cl [Cpd 235, 6-(2-((cyclobutylmethylamino)methyl)-1-methyl-1H-indol-5-yl)-5-ethyl-4-hydroxy-2-oxo-1,2-dihydropyridine-3-carboxylic acid hydrochloride] | < 1 | 3.5 to 12.5 | < 1 | 3.5 to 12.5 | 12.5 to 150 | 3.5 to 12.5 | < 1 | 1 to 3.5 | 3.5 to 12.5 | 12.5 to 150 | 12.5 to 150 | < 1 | < 1 | < 1
CCc1c(-c2ccc3c(c2)cc(CNCC2CCCC2)n3C)[nH]c(=O)c(C(=O)O)c1O.Cl [Cpd 236, 6-(2-((cyclopentylmethylamino)methyl)-1-methyl-1H-indol-5-yl)-5-ethyl-4-hydroxy-2-oxo-1,2-dihydropyridine-3-carboxylic acid hydrochloride] | < 1 | 3.5 to 12.5 | < 1 | 3.5 to 12.5 | 12.5 to 150 | 12.5 to 150 | 1 to 3.5 | 1 to 3.5 | 1 to 3.5 | 12.5 to 150 | 12.5 to 150 | 1 to 3.5 | < 1 | < 1
CCc1c(-c2ccc3c(c2)cc(CN2CCCN(C)CC2)n3C)[nH]c(=O)c(C(=O)O)c1O.Cl.Cl [Cpd 238, 5-ethyl-4-hydroxy-6-(1-methyl-2-((4-methyl-1,4-diazepan-1-yl)methyl)-1H-indol-5-yl)-2-oxo-1,2-dihydropyridine-3-carboxylic acid dihydrochloride] | < 1 | 3.5 to 12.5 | 1 to 3.5 | 1 to 3.5 | 12.5 to 150 | 12.5 to 150 | 3.5 to 12.5 | 1 to 3.5 | 12.5 to 150 | 12.5 to 150 | 12.5 to 150 | < 1 | 1 to 3.5 | < 1
CCc1c(-c2ccc3c(c2)cc(CC2CC2C)n3C)[nH]c(=O)c(C(=O)O)c1O.Cl (stereo not drawn) [Cpd 240, 5-ethyl-4-hydroxy-6-(1-methyl-2-((2-methylcyclopropyl)methyl)-1H-indol-5-yl)-2-oxo-1,2-dihydropyridine-3-carboxylic acid hydrochloride] | < 1 | 3.5 to 12.5 | < 1 | 3.5 to 12.5 | 12.5 to 150 | 3.5 to 12.5 | < 1 | < 1 | 1 to 3.5 | 12.5 to 150 | 3.5 to 12.5 | < 1 | < 1 | < 1
CCc1c(-c2ccc3c(c2)cc(CNC2(C)CCC2)n3C)[nH]c(=O)c(C(=O)O)c1O.Cl [Cpd 245, 5-ethyl-4-hydroxy-6-(1-methyl-2-((1-methylcyclobutylamino)methyl)-1H-indol-5-yl)-2-oxo-1,2-dihydropyridine-3-carboxylic acid hydrochloride] | < 1 | 3.5 to 12.5 | < 1 | 1 to 3.5 | 3.5 to 12.5 | 1 to 3.5 | < 1 | < 1 | 1 to 3.5 | 12.5 to 150 | 3.5 to 12.5 | < 1 | < 1 | < 1
CCc1c(-c2ccc3c(c2)cc(CN2CCC(C)CC2)n3C)[nH]c(=O)c(C(=O)O)c1O [Cpd 247, 5-ethyl-4-hydroxy-6-(1-methyl-2-((4-methylpiperidin-1-yl)methyl)-1H-indol-5-yl)-2-oxo-1,2-dihydropyridine-3-carboxylic acid] | < 1 | 3.5 to 12.5 (≈ 8.26 to 29.5 µM) | < 1 | 3.5 to 12.5 (≈ 8.26 to 29.5 µM) | 12.5 to 150 (≈ 29.5 to 354 µM) | 12.5 to 150 (≈ 29.5 to 354 µM) | 1 to 3.5 (≈ 2.36 to 8.26 µM) | 1 to 3.5 (≈ 2.36 to 8.26 µM) | 1 to 3.5 (≈ 2.36 to 8.26 µM) | 12.5 to 150 (≈ 29.5 to 354 µM) | 12.5 to 150 (≈ 29.5 to 354 µM) | 1 to 3.5 (≈ 2.36 to 8.26 µM) | < 1 | < 1
CCc1c(-c2ccc3c(c2)cc(CN2CCC(N(C)C)CC2)n3C)[nH]c(=O)c(C(=O)O)c1O [Cpd 248, 6-(2-((4-(dimethylamino)piperidin-1-yl)methyl)-1-methyl-1H-indol-5-yl)-5-ethyl-4-hydroxy-2-oxo-1,2-dihydropyridine-3-carboxylic acid] | < 1 | 3.5 to 12.5 (≈ 7.73 to 27.6 µM) | < 1 | 3.5 to 12.5 (≈ 7.73 to 27.6 µM) | 12.5 to 150 (≈ 27.6 to 331 µM) | 12.5 to 150 (≈ 27.6 to 331 µM) | 1 to 3.5 (≈ 2.21 to 7.73 µM) | 1 to 3.5 (≈ 2.21 to 7.73 µM) | 12.5 to 150 (≈ 27.6 to 331 µM) | 12.5 to 150 (≈ 27.6 to 331 µM) | 12.5 to 150 (≈ 27.6 to 331 µM) | < 1 | 1 to 3.5 (≈ 2.21 to 7.73 µM) | < 1
CCc1c(-c2ccc3c(c2)cc(CN2CCCC(N(C)C)C2)n3C)[nH]c(=O)c(C(=O)O)c1O (stereo not drawn) [Cpd 250, 6-(2-((3-(dimethylamino)piperidin-1-yl)methyl)-1-methyl-1H-indol-5-yl)-5-ethyl-4-hydroxy-2-oxo-1,2-dihydropyridine-3-carboxylic acid] | < 1 | 3.5 to 12.5 (≈ 7.73 to 27.6 µM) | 1 to 3.5 (≈ 2.21 to 7.73 µM) | 3.5 to 12.5 (≈ 7.73 to 27.6 µM) | 12.5 to 150 (≈ 27.6 to 331 µM) | 12.5 to 150 (≈ 27.6 to 331 µM) | 3.5 to 12.5 (≈ 7.73 to 27.6 µM) | 3.5 to 12.5 (≈ 7.73 to 27.6 µM) | 12.5 to 150 (≈ 27.6 to 331 µM) | 12.5 to 150 (≈ 27.6 to 331 µM) | 12.5 to 150 (≈ 27.6 to 331 µM) | 3.5 to 12.5 (≈ 7.73 to 27.6 µM) | 1 to 3.5 (≈ 2.21 to 7.73 µM) | < 1
